For 25 compounds, IC50 results are on record in US20240101576A1, “HETEROCYCLIC INHIBITORS OF EGFR AND/OR HER2, FOR USE IN THE TREATMENT OF CANCER” (Scorpion Therapeutics, Inc., priority 2020, published 2024).

Format in all cases: cell-based
Assay [1] addresses T1, EGFR exon 20 ASV Ins V769_D770 (Ba/F3 cells) (Homo sapiens, UniProt P00533, INS769ASV).
T1 construct: expressed in transfected cells; host or cells: Ba/F3 (murine pro-B cells), retroviral transduction, puromycin selection, IL3-independent pool
Description: Inhibitor activity on EGFR-dependent cell growth (CellTiter-Glo, 72 h), Ba/F3 EGFR exon 20 ASV Ins. The note with it: read-out: BaF3 ASV IC50. A digest of the protocol:
(§1)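 IC50s derive from a sigmoidal dose–response fit of CellTiter-Glo signal. The signal was normalised between […]-treated cells and cell-free medium. Ba/F3 mutant-EGFR cells, seeded at 400–800/well depending on the line, had 72 h of exposure to a 10-point, 3-fold compound series.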

Assay [2] addresses T2, EGFR exon 20 FQEA Ins A763_V764 (Ba/F3 cells) (Homo sapiens, UniProt P00533, INS763FQEA).
T2 construct: expressed in transfected cells; host or cells: Ba/F3 (murine pro-B cells), retroviral transduction, puromycin selection, IL3-independent pool
In words: Inhibitor activity on EGFR-dependent cell growth (CellTiter-Glo, 72 h), Ba/F3 EGFR exon 20 FQEA Ins. The note with it: read-out: BaF3 FQEA IC50. The method, boiled down:
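Steps: seed Ba/F3 EGFR-mutant pools (800 cells/well FQEA and exon 19del; 600 L858R/C797S; 400 L858R). Add 120 nL of serially diluted compound and incubate 72 h. Equilibrate to room temperature, add CellTiter-Glo and read after 30 min. Fit IC50.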

Assay [3] addresses T3, EGFR WT (Ba/F3 cells) (Homo sapiens, UniProt P00533).
T3 construct: expressed in transfected cells; host or cells: Ba/F3 (murine pro-B cells), retroviral transduction, puromycin selection, maintained with EGF
In words: Inhibitor activity on EGFR-dependent cell growth (CellTiter-Glo, 72 h), Ba/F3 EGFR WT. The following applies: read-out: BaF3 WT IC50. A digest of the protocol: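 This growth assay used Ba/F3 cells that depend on wild-type EGFR and are kept in EGF without IL3. Compounds were made up as 10 mM DMSO stocks and diluted 3-fold over 10 points. 120 nL went onto 600 cells/well. After 72 hours, 40 μL CellTiter-Glo was added and luminescence read on EnVision after 30 min.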

Assay [4] addresses T4, EGFR exon 20 SVD Ins D770_N771 (Ba/F3 cells) (Homo sapiens, UniProt P00533, INS770SVD).
T4 construct: expressed in transfected cells; host or cells: Ba/F3 (murine pro-B cells), retroviral transduction, puromycin selection, IL3-independent pool
In words: Inhibitor activity on EGFR-dependent cell growth (CellTiter-Glo, 72 h), Ba/F3 EGFR exon 20 SVD Ins. The following applies: read-out: BaF3 SVD IC50. The method, boiled down:
as §1
(In general: ATP-based viability assays read luminescence as a measure of living cells.)

Each structure is given as a SMILES string.

T2 sequence (P00533 with tags, fused parts or gaps INS763FQEA): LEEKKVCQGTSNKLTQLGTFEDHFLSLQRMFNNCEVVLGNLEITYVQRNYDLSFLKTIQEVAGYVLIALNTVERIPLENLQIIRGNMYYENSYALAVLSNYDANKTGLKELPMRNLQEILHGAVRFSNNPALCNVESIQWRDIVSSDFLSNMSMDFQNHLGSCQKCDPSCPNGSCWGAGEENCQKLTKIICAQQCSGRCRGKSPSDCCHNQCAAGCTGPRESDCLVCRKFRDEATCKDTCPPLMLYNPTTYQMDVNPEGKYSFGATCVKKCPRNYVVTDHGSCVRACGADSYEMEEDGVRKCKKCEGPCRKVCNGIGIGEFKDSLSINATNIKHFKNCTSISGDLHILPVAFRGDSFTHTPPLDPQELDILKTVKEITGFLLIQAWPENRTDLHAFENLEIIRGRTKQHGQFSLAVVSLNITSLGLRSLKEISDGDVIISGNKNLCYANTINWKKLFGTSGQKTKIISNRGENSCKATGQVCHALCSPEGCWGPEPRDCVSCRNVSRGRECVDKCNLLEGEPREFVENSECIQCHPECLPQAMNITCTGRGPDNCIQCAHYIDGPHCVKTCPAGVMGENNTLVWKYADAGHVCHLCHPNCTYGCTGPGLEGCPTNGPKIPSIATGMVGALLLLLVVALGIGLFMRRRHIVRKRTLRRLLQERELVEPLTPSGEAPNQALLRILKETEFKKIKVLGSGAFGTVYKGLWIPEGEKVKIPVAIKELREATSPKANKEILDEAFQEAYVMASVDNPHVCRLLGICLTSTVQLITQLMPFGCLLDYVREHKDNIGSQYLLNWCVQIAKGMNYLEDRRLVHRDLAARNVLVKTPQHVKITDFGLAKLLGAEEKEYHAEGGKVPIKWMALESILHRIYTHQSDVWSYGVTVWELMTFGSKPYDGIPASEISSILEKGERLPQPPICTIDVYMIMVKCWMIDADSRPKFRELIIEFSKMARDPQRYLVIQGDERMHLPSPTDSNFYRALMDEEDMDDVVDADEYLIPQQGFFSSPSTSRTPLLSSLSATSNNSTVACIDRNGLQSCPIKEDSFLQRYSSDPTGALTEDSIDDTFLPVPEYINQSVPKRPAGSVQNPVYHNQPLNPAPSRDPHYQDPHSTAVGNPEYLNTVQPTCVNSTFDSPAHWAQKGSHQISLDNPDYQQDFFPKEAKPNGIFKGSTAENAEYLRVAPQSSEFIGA
T3 sequence (P00533 25-1210): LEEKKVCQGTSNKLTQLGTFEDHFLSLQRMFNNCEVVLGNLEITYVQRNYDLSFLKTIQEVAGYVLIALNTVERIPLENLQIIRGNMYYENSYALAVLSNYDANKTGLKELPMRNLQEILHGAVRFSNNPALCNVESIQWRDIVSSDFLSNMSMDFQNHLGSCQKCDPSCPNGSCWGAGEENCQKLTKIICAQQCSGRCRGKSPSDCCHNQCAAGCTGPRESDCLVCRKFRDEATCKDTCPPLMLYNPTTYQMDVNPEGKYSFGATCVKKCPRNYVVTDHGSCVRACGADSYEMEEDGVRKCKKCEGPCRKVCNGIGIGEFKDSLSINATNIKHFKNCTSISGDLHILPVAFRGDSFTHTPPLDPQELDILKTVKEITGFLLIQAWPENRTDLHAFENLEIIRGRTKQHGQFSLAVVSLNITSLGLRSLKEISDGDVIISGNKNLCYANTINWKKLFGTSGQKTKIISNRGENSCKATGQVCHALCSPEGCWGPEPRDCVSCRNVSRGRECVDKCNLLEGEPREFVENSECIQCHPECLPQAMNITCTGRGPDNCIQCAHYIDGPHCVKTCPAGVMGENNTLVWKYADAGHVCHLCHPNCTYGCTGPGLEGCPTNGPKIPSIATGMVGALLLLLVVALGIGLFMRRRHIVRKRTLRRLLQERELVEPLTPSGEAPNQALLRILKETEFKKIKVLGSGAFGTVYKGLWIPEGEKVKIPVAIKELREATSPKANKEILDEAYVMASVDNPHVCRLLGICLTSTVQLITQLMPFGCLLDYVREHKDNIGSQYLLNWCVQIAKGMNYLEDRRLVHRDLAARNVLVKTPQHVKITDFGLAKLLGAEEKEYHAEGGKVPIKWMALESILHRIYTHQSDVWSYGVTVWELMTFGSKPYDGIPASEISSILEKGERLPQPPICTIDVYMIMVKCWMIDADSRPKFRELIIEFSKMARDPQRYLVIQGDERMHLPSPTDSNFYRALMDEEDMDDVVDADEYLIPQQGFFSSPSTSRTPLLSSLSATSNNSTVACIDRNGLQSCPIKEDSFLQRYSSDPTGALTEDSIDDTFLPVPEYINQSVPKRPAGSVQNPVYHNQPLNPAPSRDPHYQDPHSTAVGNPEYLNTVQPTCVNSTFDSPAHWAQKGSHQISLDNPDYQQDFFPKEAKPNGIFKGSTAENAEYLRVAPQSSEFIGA
T4 sequence (P00533 with tags, fused parts or gaps INS770SVD): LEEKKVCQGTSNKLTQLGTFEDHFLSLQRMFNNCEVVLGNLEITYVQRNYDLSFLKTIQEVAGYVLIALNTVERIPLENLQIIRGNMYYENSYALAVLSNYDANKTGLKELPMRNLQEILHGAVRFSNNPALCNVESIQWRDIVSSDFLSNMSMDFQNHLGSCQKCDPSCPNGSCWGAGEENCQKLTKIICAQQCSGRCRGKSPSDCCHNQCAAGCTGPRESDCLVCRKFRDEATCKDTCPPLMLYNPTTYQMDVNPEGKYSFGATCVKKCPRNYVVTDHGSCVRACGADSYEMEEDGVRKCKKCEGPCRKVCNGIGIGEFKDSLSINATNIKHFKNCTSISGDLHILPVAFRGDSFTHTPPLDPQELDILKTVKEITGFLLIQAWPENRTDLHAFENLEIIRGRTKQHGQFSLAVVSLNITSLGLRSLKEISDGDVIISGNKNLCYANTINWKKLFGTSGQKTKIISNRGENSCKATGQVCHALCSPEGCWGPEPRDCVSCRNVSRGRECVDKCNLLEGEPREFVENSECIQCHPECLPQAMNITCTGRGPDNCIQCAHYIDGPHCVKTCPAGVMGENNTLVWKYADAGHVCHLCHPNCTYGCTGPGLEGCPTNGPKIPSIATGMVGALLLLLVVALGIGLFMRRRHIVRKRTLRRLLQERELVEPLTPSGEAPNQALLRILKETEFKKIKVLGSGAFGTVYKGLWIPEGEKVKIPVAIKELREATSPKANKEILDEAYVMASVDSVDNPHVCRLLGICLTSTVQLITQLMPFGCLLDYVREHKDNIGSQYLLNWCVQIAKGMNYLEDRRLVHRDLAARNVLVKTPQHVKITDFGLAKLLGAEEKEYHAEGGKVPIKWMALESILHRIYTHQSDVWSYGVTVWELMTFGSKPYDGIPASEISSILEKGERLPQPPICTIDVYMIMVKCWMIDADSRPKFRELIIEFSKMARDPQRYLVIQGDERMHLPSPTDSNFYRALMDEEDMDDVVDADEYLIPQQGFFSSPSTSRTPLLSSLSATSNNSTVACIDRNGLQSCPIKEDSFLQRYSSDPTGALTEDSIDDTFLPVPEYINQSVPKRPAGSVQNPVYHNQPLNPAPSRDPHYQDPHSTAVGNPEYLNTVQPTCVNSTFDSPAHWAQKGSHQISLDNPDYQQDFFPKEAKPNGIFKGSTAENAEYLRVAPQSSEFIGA
T1 sequence (P00533 with tags, fused parts or gaps INS769ASV): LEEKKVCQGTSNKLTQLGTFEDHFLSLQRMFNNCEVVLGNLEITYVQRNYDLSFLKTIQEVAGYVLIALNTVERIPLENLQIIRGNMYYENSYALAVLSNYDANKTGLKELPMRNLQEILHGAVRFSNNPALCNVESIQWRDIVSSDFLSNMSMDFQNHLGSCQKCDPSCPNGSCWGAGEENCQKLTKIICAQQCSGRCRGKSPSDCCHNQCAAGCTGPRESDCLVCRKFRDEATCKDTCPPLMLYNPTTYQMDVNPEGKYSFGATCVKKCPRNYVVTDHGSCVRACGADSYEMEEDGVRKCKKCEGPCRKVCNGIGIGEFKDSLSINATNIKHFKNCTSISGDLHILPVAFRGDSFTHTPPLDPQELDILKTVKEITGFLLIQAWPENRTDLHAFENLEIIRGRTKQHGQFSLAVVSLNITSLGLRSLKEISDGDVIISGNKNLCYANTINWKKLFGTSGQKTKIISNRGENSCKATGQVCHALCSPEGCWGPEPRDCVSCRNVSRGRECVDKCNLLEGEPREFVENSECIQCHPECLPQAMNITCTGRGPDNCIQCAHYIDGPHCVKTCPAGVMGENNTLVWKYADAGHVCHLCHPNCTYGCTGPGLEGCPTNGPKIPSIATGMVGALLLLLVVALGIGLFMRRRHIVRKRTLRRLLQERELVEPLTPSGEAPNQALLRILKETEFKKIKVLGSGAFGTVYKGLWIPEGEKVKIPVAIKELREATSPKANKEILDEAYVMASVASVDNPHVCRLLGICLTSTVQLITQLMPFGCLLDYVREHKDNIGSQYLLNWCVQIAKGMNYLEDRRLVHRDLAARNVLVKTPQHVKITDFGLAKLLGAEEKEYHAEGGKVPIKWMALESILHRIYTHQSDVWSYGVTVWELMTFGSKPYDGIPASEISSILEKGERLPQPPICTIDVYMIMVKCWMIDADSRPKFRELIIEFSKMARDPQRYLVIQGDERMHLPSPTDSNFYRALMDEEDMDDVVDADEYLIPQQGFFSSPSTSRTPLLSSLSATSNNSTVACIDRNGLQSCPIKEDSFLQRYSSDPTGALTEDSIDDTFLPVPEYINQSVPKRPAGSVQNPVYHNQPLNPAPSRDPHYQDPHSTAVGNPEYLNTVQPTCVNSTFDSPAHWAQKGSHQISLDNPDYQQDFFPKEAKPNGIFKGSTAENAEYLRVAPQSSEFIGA

Turning to `COc1c(F)cccc1Nc1c(-c2ccncc2F)[nH]c2c1C(=O)NC[C@@H]2C[C@@H]1CCO1` [Compound 422b, (7S)-3-[(3-fluoro-2-methoxyphenyl)amino]-2-(3-fluoropyridin-4-yl)-7-[(2R)-oxetan-2-ylmethyl]-1H,5H,6H,7H-pyrrolo[3,2-c]pyridin-4-one], the half-maximal inhibitory concentration (IC50) in assay [1] is 100 to 1000 nM; in assay [2], 100 to 1000 nM; in assay [3], more than 1000 nM; in assay [4] it was 100 to 1000 nM.
Consider `COc1c(Cl)cccc1Nc1c(-c2ccncc2F)[nH]c2c1C(=O)NC[C@]21CCN(S(C)(=O)=O)C1` [compound 494], for which the IC50 in assay [1], in assay [2], in assay [3] and in assay [4] was more than 1000 nM in each case.
Turning to `COc1c(Cl)cccc1Nc1c(-c2ccncc2F)[nH]c2c1C(=O)NCC21COC1` [Compound 748, 3′-[(3-chloro-2-methoxyphenyl)amino]-2′-(3-fluoropyridin-4-yl)-5′,6′-dihydro-1′H-spiro[oxetane-3,7′-pyrrolo[3,2-c]pyridin]-4′-one], the IC50 was 100 to 1000 nM in assay [1], 100 to 1000 nM in assay [2], more than 1000 nM in assay [3] and 100 to 1000 nM in assay [4].
Take `COc1ccc2nccc(-c3[nH]c4c(c3Nc3cccc(Cl)c3OC)C(=O)NCC43CCC3)c2n1` [Compound 760, 3′-((3-chloro-2-methoxyphenyl)amino)-2′-(6-methoxy-1,5-naphthyridin-4-yl)-5′,6′-dihydrospiro[cyclobutane-1,7′-pyrrolo[3,2-c]pyridin]-4′(1′H)-one]: the IC50 in assay [1], in assay [2], in assay [3] and in assay [4] was less than 100 nM throughout.
Consider `COc1ncc2nccc(-c3[nH]c4c(c3Nc3cccc(F)c3CC(F)F)C(=O)NCC4)c2n1` [Compound 795, 3-{[2-(2,2-difluoroethyl)-3-fluorophenyl]amino}-2-{2-methoxypyrido[3,2-d]pyrimidin-8-yl}-1H,5H,6H,7H-pyrrolo[3,2-c]pyridin-4-one], for which the concentration for half-maximal inhibition (IC50) in assay [1] is 100 to 1000 nM; in assay [2] it was 100 to 1000 nM; in assay [3] it was more than 1000 nM; in assay [4] it was 100 to 1000 nM.
With `COc1c(F)cccc1Nc1c(-c2ccncc2)[nH]c2c1C(=O)NCC2` [compound 243], the IC50 in assay [1] is 100 to 1000 nM; in assay [2] it was 100 to 1000 nM; in assay [3] it was more than 1000 nM; in assay [4], 100 to 1000 nM.
With `COc1c(Cl)cccc1Nc1c(-c2ccncc2F)[nH]c2c1C(=O)NC[C@]21CCN(C)C1` [compound 815], the IC50 was 100 to 1000 nM in assay [1], 100 to 1000 nM in assay [2], more than 1000 nM in assay [3] and 100 to 1000 nM in assay [4].
As to `COc1c(Cl)cccc1Nc1c(-c2ccnc3cc(F)cnc23)[nH]c2c1C(=O)NCC2` [Compound 826], the 50% inhibitory concentration (IC50) was less than 100 nM in assay [1], less than 100 nM in assay [2], 100 to 1000 nM in assay [3] and less than 100 nM in assay [4].
On to `COc1c(Cl)cccc1Nc1c(-c2ccnc3ccc(OCCN4CCOCC4)nc23)[nH]c2c1C(=O)NCC2` [compound 504, 3-[(3-chloro-2-methoxyphenyl)amino]-2-{6-[2-(morpholin-4-yl)ethoxy]-1,5-naphthyridin-4-yl}-1H,5H,6H,7H-pyrrolo[3,2-c] pyridin-4-one], for which the IC50 is less than 100 nM in assay [1], 100 to 1000 nM in assay [2], 100 to 1000 nM in assay [3] and less than 100 nM in assay [4].
With `COc1cnc2c(-c3[nH]c4c(c3Nc3cccc(Cl)c3OC)C(=O)NCC4)ccnc2c1` [compound 814], the IC50 in assay [1], in assay [2], in assay [3] and in assay [4] was less than 100 nM in each case.
Consider `COc1c(Cl)cccc1Nc1c(-c2ccncc2F)[nH]c2c1C(=O)NC[C@@]21CCN(C(C)=O)C1` [compound 492], for which the IC50 in assay [1], in assay [2], in assay [3] and in assay [4] was more than 1000 nM throughout.
Consider `COc1ccc2nccc(-c3[nH]c4c(c3Nc3cccc(Cl)c3OC)C(=O)NCC43CC3)c2n1` [compound 316], for which the IC50 is less than 100 nM in assay [1], less than 100 nM in assay [2], 100 to 1000 nM in assay [3] and less than 100 nM in assay [4].
With `COc1c(Cl)cccc1Nc1c(-c2ccncc2F)[nH]c2c1C(=O)NC[C@@]21CCOC1` (single isomer, unassigned) [Compound 781], the half-inhibitory concentration (IC50) was 100 to 1000 nM in assay [1], 100 to 1000 nM in assay [2], more than 1000 nM in assay [3] and 100 to 1000 nM in assay [4].
As for `COc1c(Cl)cccc1Nc1c(-c2ccnc3cnc(OCCN4CCOCC4)nc23)[nH]c2c1C(=O)NCC2` [compound 506, 3-[(3-chloro-2-methoxyphenyl)amino]-2-{2-[2-(morpholin-4-yl)ethoxy]pyrido[3,2-d]pyrimidin-8-yl}-1H,5H,6H,7H-pyrrolo[3,2-c]pyridin-4-one], the IC50 in assay [1] is 100 to 1000 nM; in assay [2], 100 to 1000 nM; in assay [3] it was more than 1000 nM; in assay [4], 100 to 1000 nM.
As for `COc1c(Cl)cccc1Nc1c(-c2ccnc(Nc3cnoc3C)n2)[nH]c2c1C(=O)NCC2` [compound 510, 3-[(3-chloro-2-methoxyphenyl)amino]-2-{2-[(5-methyl-1,2-oxazol-4-yl)amino]pyrimidin-4-yl}-1H,5H,6H,7H-pyrrolo[3,2-c]pyridin-4-one], the IC50 was less than 100 nM in assay [1], 100 to 1000 nM in assay [2], more than 1000 nM in assay [3] and less than 100 nM in assay [4].
For `COc1ccc2nccc(-c3[nH]c4c(c3Nc3cccc(Cl)c3OC)C(=O)NC[C@@H]4CCF)c2n1` [Compound 744, (S)-3-((3-chloro-2-methoxyphenyl)amino)-7-(2-fluoroethyl)-2-(6-methoxy-1,5-naphthyridin-4-yl)-1,5,6,7-tetrahydro-4H-pyrrolo[3,2-c]pyridin-4-one], the IC50 in assay [1], in assay [2], in assay [3] and in assay [4] was less than 100 nM throughout.
Take `COc1ccc2nccc(-c3[nH]c4c(c3Nc3cccc(Cl)c3OC)C(=O)NC[C@@H]4C)c2n1` [310b]: the IC50 in assay [1], in assay [2], in assay [3] and in assay [4] was less than 100 nM in each case.
`COc1ncc2nccc(-c3[nH]c4c(c3Nc3cccc(C)c3F)C(=O)NCC4)c2n1` [Compound 804, 3-[(2-fluoro-3-methylphenyl)amino]-2-[2-methoxypyrido[3,2-d]pyrimidin-8-yl]-1H,5H,6H,7H-pyrrolo[3,2-c]pyridin-4-one]: the IC50 in assay [1] was 100 to 1000 nM; in assay [2], less than 100 nM; in assay [3], 100 to 1000 nM; in assay [4] it was less than 100 nM.
As to `COc1c(Cl)cccc1Nc1c(-c2ccnc3ccc(OC4(C)CC4)nc23)[nH]c2c1C(=O)NC[C@H]2C` (single isomer, unassigned) [Compound 774], the IC50 in assay [1], in assay [2], in assay [3] and in assay [4] was less than 100 nM throughout.
Consider `COc1c(F)cccc1Nc1c(-c2ccncc2F)[nH]c2c1C(=O)NCC2` [compound 418], for which the IC50 in assay [1] was 100 to 1000 nM; in assay [2] it was 100 to 1000 nM; in assay [3], more than 1000 nM; in assay [4], 100 to 1000 nM.
For the compound `COc1c(Cl)cccc1Nc1c(-c2ccnc3ccc(OCC4(F)CC4)nc23)[nH]c2c1C(=O)NCC2` [compound 759, 3-[(3-chloro-2-methoxyphenyl)amino]-2-[6-[(1-fluorocyclopropyl)methoxy]-1,5-naphthyridin-4-yl]-1H,5H,6H,7H-pyrrolo[3,2-c]pyridin-4-one], the IC50 in assay [1] was less than 100 nM; in assay [2] it was less than 100 nM; in assay [3] it was 100 to 1000 nM; in assay [4], less than 100 nM.
Turning to `COc1c(Cl)cccc1Nc1c(-c2ccnc3ccc(OC4CC4)nc23)[nH]c2c1C(=O)NCC21CC1` [compound 323], the IC50 in assay [1] was less than 100 nM; in assay [2] it was less than 100 nM; in assay [3], 100 to 1000 nM; in assay [4], less than 100 nM.
For the compound `COc1c(Cl)cccc1Nc1c(-c2ccncc2F)[nH]c2c1C(=O)NCC21CCOC1` (single isomer, unassigned) [Compound 782], the IC50 in assay [1] is 100 to 1000 nM; in assay [2], 100 to 1000 nM; in assay [3], more than 1000 nM; in assay [4] it was 100 to 1000 nM.
As for `COc1c(F)cccc1Nc1c(-c2nnc3ccccn23)[nH]c2c1C(=O)NCC2` [compound 239], the half-inhibitory concentration (IC50) in assay [1], in assay [2], in assay [3] and in assay [4] was more than 1000 nM in each case.
Turning to `CC[C@H]1CNC(=O)c2c1[nH]c(-c1ccnc(N)n1)c2Nc1cccc(Cl)c1OC` [189b], the IC50 in assay [1] was less than 100 nM; in assay [2], less than 100 nM; in assay [3], 100 to 1000 nM; in assay [4], less than 100 nM.

The IC50 is the concentration that inhibits the measured activity by half.
